For one assay, the system named is mouse EpiSCs. The assay can be described thus: Mouse EpiSC self-renewal culture. In kind it is cell-based. Conditions: compared to IWR-1, XAV939 and JW55. The text has this: We therefore reasoned that if CHIR induces EpiSC differentiation through stabilization of β-catenin, de-stabilization of β-catenin might promote EpiSC self-renewal. We tested this hypothesis by administering the tankyrase inhibitor XAV939 to mouse EpiSC cultures. XAV939-mediated inhibition of tankyrase stabilizes Axin, leading to the formation of the β-catenin destruction complex, composed of GSK3, Axin and adenomatous polyposis coli (APC) (Huang et al., 2009). […] EpiSCs cultured in CHIR/XAV could be routinely passaged by single-cell dissociation and replating onto gelatin-coated dishes, and could be cryo-preserved and recovered at high efficiency by standard techniques.
final concentrations: CHIR99021 (3 μM), PD0325901 (1 μM), XAV939 (Sigma, 2 μM), IWR-1 (Sigma, 2.5 μM), IWP-2 (Stemgent, 2.5 μM), Pyrvinium (Sigma, 100 nM), recombinant human FGF2 (PeproTech, 10 ng/ml), and recombinant human activin A (PeproTech, 10 ng/ml). CHIR99021 and PD0325901 were synthesized in the Division of Signal Transduction Therapy, University of Dundee, UK.
(§1) The basal medium for mouse EpiSC culture is the conventional mouse ESC medium, which consists of GMEM (Sigma) supplemented with 10% fetal bovine serum (FBS) (Hyclone), 2 mM L-glutamine (Invitrogen), 1 mM sodium pyruvate (Invitrogen), 1% nonessential amino acids (Invitrogen), and 0.1 mM (3-mercaptoethanol. Mouse EpiSCs were derived and maintained in the basal medium supplemented with FGF2/activin, CHIR/XAV, or CHIR/IWR-1. The basal medium for rat EpiSC culture is N2B27 (Tong et al., 2011), which was prepared by mixing 500 ml of DMEM/F12 (Invitrogen) with 500 ml of Neurobasal™ medium (Invitrogen), and adding 5 ml of N2 (Invitrogen), 10 ml of B27 (Invitrogen), 5 ml of Glutamax™ (Invitrogen), and 1 ml of 0.1 M β-mercaptoethanol (Sigma). The basal medium for human ESC culture consists of Knockout™ DMEM/F12 supplemented with 20% KSR (Invitrogen), 1% nonessential amino acids, 2 mM L-glutamine, and 0.1 mM (3-mercaptoethanol. Human ESCs were cultured in the basal medium supplemented with FGF2, CHIR/XAV, or CHIR/IWR-1.
Post-implantation epiblasts were isolated from mouse or rat embryos and dissociated into small clumps as previously described (Chenoweth and Tesar, 2010). Epiblast fragments were placed into 4-well plates pre-coated with 0.1% gelatin (for mouse epiblasts) or pre-seeded with γ-irradiated mouse embryonic fibroblasts (MEFs) (for rat epiblasts) and cultured in either the FGF2/activin or the CHIR/XAV conditions. Emerging EpiSCs were trypsinized and expanded every 2-3 days at a subculture ratio of 1:4. Animal experiments were performed according to the investigator's protocols approved by the University of Southern California Institutional Animal Care and Use Committee.

The next assay has as its system H9 human ESCs. As to the kind of experiment: Human ESC self-renewal culture. In kind it is cell-based. Conditions: compared to IWR-1, XAV939 and JW55.
Source text: As human ESCs share defining features with mouse EpiSCs (Hanna et al., 2010; Rossant, 2008; Tesar et al., 2007), we tested whether modulating β-catenin function can also promote human ESC self-renewal. […] Next, we examined the effect of CHIR/XAV and CHIR/IWR-1 on human ESC self-renewal. […] Similar results were obtained in H1 and HES3 human ESCs (data not shown). […] Moreover, human ESCs maintained in CHIR/IWR-1 express pluripotency markers Oct4, Nanog and Sox2 (FIG. 7E), and retain the ability to differentiate into cells of all three germ layers, both in vitro and in vivo (FIGS. 7F and 7G).
as §1
H1, H9, HES-2 and HES-3 human ESC lines were kindly provided by the University of Southern California Stem Cell Core Facility. Human ESCs were routinely maintained on γ-irradiated MEF feeders in Knockout™ DMEM medium (Invitrogen) supplemented with 20% Knockout™ serum replacement (KSR; Invitrogen), 10 ng/ml FGF2 (PeproTech), 1% nonessential amino acids, 2 mM L-glutamine, and 0.1 mM β-mercaptoethanol. […]

Another assay deals with Wnt pathway. The conditions noted are these: relative to IWR-1; cited from earlier work.

On to `O=C1C([C@H]2CC[C@H](C(=O)Nc3cccc4cccnc34)CC2)C(=O)[C@H]2[C@H]3CC[C@H](C3)[C@@H]12` (stereo partly drawn) [53AH, (1R,4r)-4-((2s,3aR,4R,7S,7aS)-1,3-dioxooctahydro-1H-4,7-methanoinden-2-yl)-N-(quinolin-8-yl)cyclohexanecarboxamide], for which, in the assay with mouse EpiSCs, the “robustness for long-term expansion of mouse EpiSCs” value was “more robust for long-term expansion”. In addition, the “robustness for long-term expansion of human ESCs” value with H9 human ESCs is listed as “more robust for long-term expansion”. Also, in the assay with Wnt pathway, the “potency in Wnt inhibition compared to IWR-1” value is listed as 5 fold.
